Source: PMC12667485, “Molecular Chain Elongation Mechanism for n‐Caproate Biosynthesis by Megasphaera Hexanoica” (Advanced Science, 2025)

Molecular target: T1, MhTHL (Megasphaera hexanoica, UniProt A0A848BQU5, C88S)
T1 construct: gene HF872_02440; tetramerization motif
Assay: X-ray crystal structure, […] Å
Type: binding
Conditions: crystals soaked in 25 mM hexanoyl-CoA for 5 min, pH 7.5; the bound ligand is deacylated CoA; active site

T1 sequence (A0A848BQU5 entry or part of it C88S): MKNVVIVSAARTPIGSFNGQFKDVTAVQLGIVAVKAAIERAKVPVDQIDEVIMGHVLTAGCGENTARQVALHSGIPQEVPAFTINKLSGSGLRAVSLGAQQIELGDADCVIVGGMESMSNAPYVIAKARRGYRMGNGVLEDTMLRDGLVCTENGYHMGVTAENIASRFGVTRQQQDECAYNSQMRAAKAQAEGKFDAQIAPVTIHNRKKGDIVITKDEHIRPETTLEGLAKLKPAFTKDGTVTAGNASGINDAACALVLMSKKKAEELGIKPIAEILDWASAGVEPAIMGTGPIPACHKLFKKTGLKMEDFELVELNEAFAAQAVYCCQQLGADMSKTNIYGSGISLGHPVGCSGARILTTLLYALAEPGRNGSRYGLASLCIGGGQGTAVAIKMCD

Question: CC(C)(COP(=O)(O)OP(=O)(O)OC[C@H]1O[C@@H](n2cnc3c(N)ncnc32)[C@H](O)[C@@H]1OP(=O)(O)O)[C@@H](O)C(=O)NCCC(=O)NCCS [CoA] was tested. Which “X-ray crystal structure, 1.64 Å” value did it give?
Answer: a deacylated CoA molecule was bound to MhTHL in the mF observed‐DF calculated electron density map
